What was measured:
[1] = Stability of released drug derivative; type: physicochemical; details: self-degradation to release HO—CH2—C(═O)—(NH-DX)
From the text: Meanwhile, in case of NH2—CH2—O—CH2—C(═O)—(NH-DX), it was confirmed that, as the aminal structure in the molecule is unstable, it again undergoes a self-degradation to release the following HO—CH2—C(═O)—(NH-DX). Those compounds can be also preferably used as a production intermediate of the antibody-drug conjugate of the present invention.

topoisomerase I = molecular target: T1, topoisomerase I (Homo sapiens, UniProt P11387); details: cited from earlier work
T1 sequence (P11387 1-765): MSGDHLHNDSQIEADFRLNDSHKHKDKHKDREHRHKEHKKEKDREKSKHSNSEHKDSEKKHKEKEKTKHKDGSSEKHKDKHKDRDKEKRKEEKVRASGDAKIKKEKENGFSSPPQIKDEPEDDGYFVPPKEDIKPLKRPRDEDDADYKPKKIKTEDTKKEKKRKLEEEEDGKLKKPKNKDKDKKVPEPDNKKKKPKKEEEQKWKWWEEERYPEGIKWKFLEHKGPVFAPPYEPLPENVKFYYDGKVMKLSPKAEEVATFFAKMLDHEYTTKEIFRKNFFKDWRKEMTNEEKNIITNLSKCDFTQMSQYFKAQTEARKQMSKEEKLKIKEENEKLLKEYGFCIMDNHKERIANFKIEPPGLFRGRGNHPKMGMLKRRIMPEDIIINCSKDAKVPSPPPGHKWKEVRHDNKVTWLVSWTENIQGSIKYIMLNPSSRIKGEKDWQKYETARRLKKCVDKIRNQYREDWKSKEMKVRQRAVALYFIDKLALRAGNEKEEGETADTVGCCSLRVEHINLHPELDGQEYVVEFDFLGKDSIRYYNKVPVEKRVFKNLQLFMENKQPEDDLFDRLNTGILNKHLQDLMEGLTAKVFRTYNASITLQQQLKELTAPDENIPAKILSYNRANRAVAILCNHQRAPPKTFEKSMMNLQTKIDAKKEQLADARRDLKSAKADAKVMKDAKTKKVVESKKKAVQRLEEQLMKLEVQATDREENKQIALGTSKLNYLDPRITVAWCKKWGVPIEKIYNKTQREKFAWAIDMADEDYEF

various cancer cells = details: cited from earlier work
human tumor = human tumor subcutaneously transplanted; cited from earlier work

Structure (SMILES): CC[C@@]1(O)C(=O)OCc2c1cc1n(c2=O)Cc2c-1nc1cc(F)c(C)c3c1c2[C@@H](NC(=O)COCN)CC3 [NH2—CH2—O—CH2—C(═O)—(NH-DX)]
- stability of the aminal structure in the molecule [1]: unstable

Structure (SMILES): CC[C@@]1(O)C(=O)OCc2c1cc1n(c2=O)Cc2c-1nc1cc(F)c(C)c3c1c2[C@@H](N)CC3 [exatecan, (1S,9S)-1-amino-9-ethyl-5-fluoro-2,3-dihydro-9-hydroxy-4-methyl-1H,12H-benzo[de]pyrano[3′,4′:6,7]indolizino[1,2-b]quinolin-10,13(9H,15H)-dione]
- inhibitory activity on topoisomerase I compared to SN-38 and topotecan (topoisomerase I): higher inhibitory activity
- cytocidal activity in vitro compared to SN-38 and topotecan (various cancer cells): higher cytocidal activity
- antitumor effect (human tumor): potent antitumor effect
